IC50 data for 23 compounds are collected here from patent US11040035B2, “3-oxo-2,6-diphenyl-2,3-dihydropyridazine-4-carboxamides” (BAYER PHARMA AKTIENGESELLSCHAFT, priority 2016, dated 2021).

Test [1] has as its target T1, AHR (Homo sapiens, UniProt P35869).
T1 sequence (P35869 11-848): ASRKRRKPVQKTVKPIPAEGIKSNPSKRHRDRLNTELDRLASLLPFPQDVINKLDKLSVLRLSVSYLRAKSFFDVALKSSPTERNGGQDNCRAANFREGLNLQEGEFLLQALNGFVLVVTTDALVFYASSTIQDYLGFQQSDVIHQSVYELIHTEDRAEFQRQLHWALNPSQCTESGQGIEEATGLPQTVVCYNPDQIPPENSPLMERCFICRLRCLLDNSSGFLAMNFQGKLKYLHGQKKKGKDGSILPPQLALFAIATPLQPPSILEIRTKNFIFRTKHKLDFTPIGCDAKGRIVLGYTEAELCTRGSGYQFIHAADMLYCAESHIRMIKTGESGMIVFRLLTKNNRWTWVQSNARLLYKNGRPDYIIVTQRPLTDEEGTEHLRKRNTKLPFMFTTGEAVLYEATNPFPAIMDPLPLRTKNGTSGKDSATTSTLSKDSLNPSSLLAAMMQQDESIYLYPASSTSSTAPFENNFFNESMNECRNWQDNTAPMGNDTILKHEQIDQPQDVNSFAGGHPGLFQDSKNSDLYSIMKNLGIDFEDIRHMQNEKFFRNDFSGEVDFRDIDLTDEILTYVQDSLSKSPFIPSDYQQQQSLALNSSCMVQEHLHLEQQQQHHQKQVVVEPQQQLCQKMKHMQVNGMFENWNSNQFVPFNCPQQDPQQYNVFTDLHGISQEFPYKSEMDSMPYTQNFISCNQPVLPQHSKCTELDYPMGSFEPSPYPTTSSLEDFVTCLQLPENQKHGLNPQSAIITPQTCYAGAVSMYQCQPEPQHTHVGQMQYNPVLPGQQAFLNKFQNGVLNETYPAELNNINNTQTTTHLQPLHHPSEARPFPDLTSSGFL
Put plainly: In vitro assay 2: agonism in human cell line (transactivation assay).
Description: Transactivation Assay in Human Cell Line (In Vitro Assays 1 and 2)
Transactivation assays were carried out in U87 glioblastoma cells (ATCC) endogenously expressing AHR. In addition the cells were stably transfected with an AHR inducible firefly luciferase reporter gene construct that carried AHR-binding sites (DRE) in its promoter and a renilla reporter gene construct with constitutively active promoter.
In Vitro Assay 2: Agonism in Human Cell Line
Cells in medium (tryptophan free RPMI, 1% FCS, 2 mM Glutamine) were grown for 20 hours in absence (negative control) or presence of increasing concentrations of test compounds (typical dilutions: 72 pmol/L, 0.25 nmol/L, 0.89 nmol/L; 3.1 nmol/L, 11 nmol/L, 38 nmol/L, 130 nmol/L, 470 nmol/L, 1.6 μmol/L, 5.7 μmol/L and 20 μmol/L in duplicates). As positive activation control cells were incubated with 300 μM kynurenic acid. Normalization was done by positive and negative controls.
Firefly luciferase activity was determined by the SteadyGlo Luciferase Assay System (Promega, #2520).

For test [2], the target named is T1, AHR. Put plainly: In vitro assay 1: antagonism in human cell line (transactivation assay, kynurenic acid prestimulated). The conditions noted are these: Assay 1: AHR-luc Hum Antagonism IC50 [M], 150 μM kynurenic acid, 20 hours, firefly luciferase.
The mark [3] stands for this setting: read-out: Assay 2: AHR-luc Hum Agonism IC50, no kynurenic acid, 20 hours, firefly luciferase.
Where [4] appears, read: Assay 2: AHR-luc Hum Agonism IC50 [M], no kynurenic acid, 20 hours, firefly luciferase.

Where only a bound is given, the exact number is not on record here.

One may read the IC50 as the concentration needed to halve the response being measured. Turning to `O=C(N[C@H]1CCC[C@@H]1O)c1cc(-c2ccc(Cl)cc2)nn(-c2cccc(F)c2)c1=O` (single isomer, unassigned) [Example 125, 6-(4-Chlorophenyl)-2-(3-fluorophenyl)-N-(trans-2-hydroxycyclopentyl)-3-oxo-2,3-dihydropyridazine-4-carboxamide], the IC50 on AHR [1] (setting [3]) is more than 2e-05 M; on AHR [2] it was 1.86e-07 M.
In the case of `CC[C@@H](CO)NC(=O)c1cc(-c2ccc(OC)cc2)nn(-c2cccc(F)c2)c1=O` [Example 298, 2-(3-Fluorophenyl)-N-[(2S)-1-hydroxybutan-2-yl]-6-(4-methoxyphenyl)-3-oxo-2,3-dihydropyridazine-4-carboxamide], the IC50 against AHR [1] (setting [4]) was more than 2e-05 M; against AHR [2] it was 3.18e-08 M.
Turning to `COc1ccc(-c2cc(C(=O)N[C@@H]3CCCC[C@@H]3O)c(=O)n(-c3cccc(F)c3)n2)cc1` (single isomer, unassigned) [Example 108, 2-(3-Fluorophenyl)-N-(cis-2-hydroxycyclohexyl)-6-(4-methoxyphenyl)-3-oxo-2,3-dihydropyridazine-4-carboxamide], the concentration for half-maximal inhibition (IC50) at AHR [1] (setting [3]) was more than 2e-05 M; against AHR [2] it was 2.4e-07 M.
As to `N#Cc1cccc(-n2nc(-c3ccc(Cl)cc3)cc(C(=O)NCC(O)C(F)(F)F)c2=O)c1` (stereo not shown) [Example 362, 6-(4-chlorophenyl)-2-(3-cyanophenyl)-3-oxo-N-(3,3,3-trifluoro-2-hydroxypropyl)-2,3-dihydropyridazine-4-carboxamide], the half-maximal inhibitory concentration (IC50) is more than 2e-05 M on AHR [1] (setting [4]) and 2.31e-07 M against AHR [2].
The matching figures for `O=C(N[C@@H]1CCCC[C@@H]1O)c1cc(-c2ccc(Cl)c(F)c2)nn(-c2cccc(F)c2)c1=O` (relative stereo) [Example 291, 6-(4-Chloro-3-fluorophenyl)-2-(3-fluorophenyl)-N-(cis-2-hydroxycyclohexyl)-3-oxo-2,3-dihydropyridazine-4-carboxamide]: more than 2e-05 M and 8.51e-08 M.
In the case of `O=C(NC(CO)C1CCOCC1)c1cc(-c2ccc(Cl)cc2)nn(-c2cccc(F)c2)c1=O` (stereo not shown) [Example 149], the IC50 at AHR [1] (setting [4]) is more than 2e-05 M; against AHR [2], 1.87e-07 M.
Turning to `O=C(NC(CO)C1CCOC1)c1cc(-c2ccc(Cl)cc2)nn(-c2cccc(F)c2)c1=O` (single isomer, unassigned) [Example 39], the half-inhibitory concentration (IC50) against AHR [1] (setting [4]) was more than 2e-05 M; against AHR [2], 2.76e-08 M.
Turning to `CC(C)(C)OC(=O)N1C[C@H](O)[C@H](NC(=O)c2cc(-c3ccc(Cl)cc3)nn(-c3cccc(F)c3)c2=O)C1` [Example 387, tert-butyl (3R,4S)-3-({[6-(4-chlorophenyl)-2-(3-fluorophenyl)-3-oxo-2,3-dihydropyridazin-4-yl]carbonyl}amino)-4-hydroxypyrrolidine-1-carboxylate], the IC50 at AHR [1] (setting [4]) is more than 2e-05 M; on AHR [2] it was 3.5e-07 M.
Take `CN1C[C@H](O)[C@H](NC(=O)c2cc(-c3ccc(Cl)cc3)nn(-c3cccc(F)c3)c2=O)C1` (relative stereo) [Example 388, 6-(4-chlorophenyl)-2-(3-fluorophenyl)-N-[cis-4-hydroxy-1-methylpyrrolidin-3-yl]-3-oxo-2,3-dihydropyridazine-4-carboxamide]: the IC50 against AHR [1] (setting [4]) is more than 2e-05 M; against AHR [2], 6.9e-07 M.
As to `COCC(O)CNC(=O)c1cc(-c2ccc(C)cc2)nn(-c2cccc(F)c2)c1=O` (single isomer, unassigned; enantiomer 1) [Example 17, 2-(3-Fluorophenyl)-N-(2-hydroxy-3-methoxypropyl)-6-(4-methylphenyl)-3-oxo-2,3-dihydropyridazine-4-carboxamide, Enantiomer 1], the results for the IC50 against AHR [1] (setting [4]) and at AHR [2] were more than 2e-05 M and 2.11e-07 M, respectively.
In the same order, the values of `Cc1ccc(-c2cc(C(=O)NCC(O)C(F)(F)F)c(=O)n(-c3cc(F)cc(F)c3)n2)cc1` (stereo not shown) [Example 52, 2-(3,5-Difluorophenyl)-6-(4-methylphenyl)-3-oxo-N-(3,3,3-trifluoro-2-hydroxypropyl)-2,3-dihydropyridazine-4-carboxamide] are more than 2e-05 M and 1.17e-08 M.
Take `CC(NC(=O)c1cc(-c2ccc(Cl)cc2)nn(-c2cccc(F)c2)c1=O)C(O)CO` (single isomer, unassigned) [Example 360, 6-(4-chlorophenyl)-N-(3,4-dihydroxybutan-2-yl)-2-(3-fluorophenyl)-3-oxo-2,3-dihydropyridazine-4-carboxamide]: the IC50 was more than 2e-05 M on AHR [1] (setting [3]) and 1.39e-08 M at AHR [2].
Turning to `C[C@H](CO)NC(=O)c1cc(-c2ccc(Cl)cc2)nn(-c2cccc(F)c2)c1=O` [Example 24, 6-(4-Chlorophenyl)-2-(3-fluorophenyl)-N-[(2R)-1-hydroxypropan-2-yl]-3-oxo-2,3-dihydropyridazine-4-carboxamide], the results for the IC50 at AHR [1] (setting [4]) and on AHR [2] were more than 2e-05 M and 3.02e-07 M, respectively.
The matching figures for `O=C(NC(CO)C1CC1)c1cc(-c2ccc(Cl)cc2)nn(-c2cccc(F)c2)c1=O` (single isomer, unassigned; (-)) [Example 194, (−)-6-(4-Chlorophenyl)-N-(1-cyclopropyl-2-hydroxyethyl)-2-(3-fluorophenyl)-3-oxo-2,3-dihydropyridazine-4-carboxamide]: more than 2e-05 M and 1.21e-08 M.
Turning to `O=C(NC[C@@H](O)C(F)(F)F)c1cc(-c2ccc(Cl)c(Cl)c2)nn(-c2cccc(F)c2)c1=O` (single isomer, unassigned) [Example 299, 6-(3,4-Dichlorophenyl)-2-(3-fluorophenyl)-3-oxo-N-(3,3,3-trifluoro-2-hydroxypropyl)-2,3-dihydropyridazine-4-carboxamide], the concentration for half-maximal inhibition (IC50) is more than 2e-05 M at AHR [1] (setting [4]) and 7.42e-07 M against AHR [2].
As for `O=C(N[C@@H]1CCCC(F)(F)[C@H]1O)c1cc(-c2ccc(Cl)cc2)nn(-c2cccc(F)c2)c1=O` (relative stereo) [Example 274, 6-(4-Chlorophenyl)-N-[(trans)-3,3-difluoro-2-hydroxycyclohexyl]-2-(3-fluorophenyl)-3-oxo-2,3-dihydropyridazine-4-carboxamide], the half-inhibitory concentration (IC50) was more than 2e-05 M against AHR [1] (setting [4]) and 2.06e-08 M against AHR [2].
With `O=C(NCC(O)C1CC1)c1cc(-c2ccc(Cl)cc2)nn(-c2cccc(F)c2)c1=O` (single isomer, unassigned; (-)) [Example 191, (−)-6-(4-Chlorophenyl)-N-(2-cyclopropyl-2-hydroxyethyl)-2-(3-fluorophenyl)-3-oxo-2,3-dihydropyridazine-4-carboxamide], the results for the IC50 against AHR [1] (setting [4]) and against AHR [2] were more than 2e-05 M and 1.1e-07 M, respectively.
Turning to `C[C@@H](O)CCNC(=O)c1cc(-c2ccc(Cl)cc2)nn(-c2cccc(F)c2)c1=O` [Example 204, (−)-6-(4-Chlorophenyl)-2-(3-fluorophenyl)-N-[(3R)-3-hydroxybutyl]-3-oxo-2,3-dihydropyridazine-4-carboxamide], the results for the IC50 at AHR [1] (setting [4]) and at AHR [2] were more than 2e-05 M and 3.85e-07 M, respectively.
On to `CC(NC(=O)c1cc(-c2ccc(Cl)cc2)nn(-c2cccc(F)c2)c1=O)C(O)CO` (single isomer, unassigned) [Example 359, 6-(4-chlorophenyl)-N-(3,4-dihydroxybutan-2-yl)-2-(3-fluorophenyl)-3-oxo-2,3-dihydropyridazine-4-carboxamide], for which the IC50 at AHR [1] (setting [3]) was more than 2e-05 M; at AHR [2], 2.67e-08 M.
Consider `O=C(NCC(O)C(F)(F)F)c1cc(-c2ccc(C(F)F)cc2)nn(-c2cccc(F)c2)c1=O` (stereo not shown) [Example 94, 6-[4-(Difluoromethyl)phenyl]-2-(3-fluorophenyl)-3-oxo-N-(3,3,3-trifluoro-2-hydroxypropyl)-2,3-dihydropyridazine-4-carboxamide], for which the concentration for half-maximal inhibition (IC50) on AHR [1] (setting [4]) is more than 2e-05 M; on AHR [2], 1.54e-08 M.
`COc1ccc(-c2cc(C(=O)N[C@@H]3CCCC[C@H]3O)c(=O)n(-c3cccc(F)c3)n2)cc1` (relative stereo) [Example 152, 2-(3-Fluorophenyl)-N-trans-2-hydroxycyclohexyl-6-(4-methoxyphenyl)-3-oxo-2,3-dihydropyridazine-4-carboxamide]: the IC50 is more than 2e-05 M against AHR [1] (setting [4]) and 1.32e-07 M against AHR [2].
In the case of `O=C(NCC(O)C(F)(F)F)c1cc(-c2ccc(OC(F)F)cc2)nn(-c2cccc(F)c2)c1=O` (single isomer, unassigned) [Example 122, 6-[4-(Difluoromethoxy)phenyl]-2-(3-fluorophenyl)-3-oxo-N-(3,3,3-trifluoro-2-hydroxypropyl)-2,3-dihydropyridazine-4-carboxamide], the IC50 was more than 2e-05 M at AHR [1] (setting [3]) and 1.38e-07 M against AHR [2].
Consider `O=C(NC[C@H](O)CO)c1cc(-c2ccc(Cl)cc2)nn(-c2cccc(F)c2)c1=O` [Example 156, 6-(4-Chlorophenyl)-N-[(2S)-2,3-dihydroxypropyl]-2-(3-fluorophenyl)-3-oxo-2,3-dihydropyridazine-4-carboxamide], for which the IC50 against AHR [1] (setting [4]) was more than 2e-05 M; against AHR [2] it was 1.99e-07 M.
